Data on one compound can be found in BindingDB's records for doi:10.1006/jmbi.2000.4032 (Cnrs, 2000).

Test [1] concerns the target T1, Retinoic acid receptor alpha [200-419] (Homo sapiens, UniProt P10276).
T1 construct: 200-419
T1 sequence (P10276 whole entry): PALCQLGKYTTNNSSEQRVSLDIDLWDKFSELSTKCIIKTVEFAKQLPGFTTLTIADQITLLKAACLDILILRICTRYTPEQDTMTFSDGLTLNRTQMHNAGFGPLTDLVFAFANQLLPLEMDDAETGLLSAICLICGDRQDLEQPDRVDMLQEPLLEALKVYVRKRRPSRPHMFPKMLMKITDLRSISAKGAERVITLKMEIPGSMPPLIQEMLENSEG
Kind of test: Retinoid Competition Binding Assay. The settings on record: pH 7.9; 4 °C.

Test [2] addresses T2, Retinoic acid receptor beta [200-419] (Homo sapiens, UniProt P10826).
T2 construct: 200-419
T2 sequence (P10826 whole entry): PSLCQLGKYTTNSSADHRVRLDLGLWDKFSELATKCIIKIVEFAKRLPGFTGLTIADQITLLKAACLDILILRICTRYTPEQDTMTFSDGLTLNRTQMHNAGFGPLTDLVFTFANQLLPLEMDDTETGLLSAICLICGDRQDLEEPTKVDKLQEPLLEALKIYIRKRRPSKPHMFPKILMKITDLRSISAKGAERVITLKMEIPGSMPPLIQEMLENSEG
In words: Retinoid Competition Binding Assay. Conditions: pH 7.9; 4 °C.

Molecules are shown by their SMILES.

As a reminder, the Kd is a measure of binding affinity in units of concentration. A low value points to higher affinity. On to `CC1(C)CCC(C)(C)c2cc(C(=O)/C=C/c3ccc(C(=O)O)cc3)ccc21` [Ch 80], for which the figures for the Kd in test [1] and in test [2] were 0.4 nM and 3.5 nM, respectively.
